Results taken from US20080057010A1, “METHOD FOR SKIN CARE” (NULIV SCIENCE LTD., priority 2006, published 2008).

Experiments:
[1] = tested on: collagen I; test: Collagen I expression in human HaCaT cells (western blot); assay type: cell-based; conditions: relative to 0 μM = 1.00
Experimental: The Spontaneously transformed human keratinocyte cell lines HaCaT cells were grown at 37° C. in a humidified incubator under 5% CO2 and 95% air in culture medium such as Dulbecco Modified Eagle Medium (DMEM) supplemented with 10% Fetal Bovine Serum (FBS), 100 IU/mL penicillin, 100 μg/mL of streptomycin, 2 mM sodium pyruvate and 1% Non-Essential Amino Acids (NEAA). The culture medium was replaced every other day. After confluence, the cells were subcultured following trypsinization. For subcultures cells were harvested after brief treatment with 0.1% trypsin/ethylenediaminetetraacetic acid (EDTA) solution and seeded at a dilution of 1:10. Cells between passages 12 and 45 were used for studies. The cells were seeded and incubated for 24 h before treated with the astragalosides for 24 h. Control cultures were maintained in medium supplemented with vehicle (dimethyl sulfoxide (DMSO) 0.1%). No growth and differentiation effects of DMSO were observed under these culture conditions.
(§1) The cells were treated with pure compounds such as astragaloside I (AS 1), astragaloside II (AS2), astragaloside III (AS3), astragaloside IV (AS4), astragaloside VI (AS6), isoastragaloside I (isoAS1), isoastragaloside II (isoAS2), and cycloastragenol 6-O-β-D-glucopyranose (AA) at concentrations of 0-10 μM. Alternatively, the cells were also treated with the crude extracts, such as butanol fraction and water insoluble fraction of Astragalus membranaceus at concentrations of 0, 1, 10, and 40 μg/mL. The cells were treated with the indicated compounds or the extracts for 24 h before harvested for analysis of collagen I and III expressed in the whole cell extract or secreted into the culture medium.
(§2) Western blot analysis was carried out on both of cultured medium and cell lysates. The cells were plated on 6-cm dishes at a density of 1×10^6 cells/dish for 24 h prior to treatment with indicated concentrations of astragalus triterpenoids as indicated for another 48 h. The conditioned culture mediums were then centrifuged, 2-fold concentrated and collected for assay of collagens and MMPs secreted into the culture medium. The cells were washed and lysed in 0.2 mL of lysis buffer (1% NP-40, 50 mM Tris-HCl, pH 7.4, 180 mM NaCl, 1 mM EDTA, 1 mM PMSF, 1 mM NaF, 10 mM Na3VO4) for 30 min at 4° C. After centrifuging at 17500 g for 15 min, the supernatants of cell lysate were also collected. Protein concentration of the samples were measured using the bicinchoninic acid (BCA) protein assay kit according to the manufacturer's protocol (Pierce, Rockford, Ill., USA). Equal amount of protein samples of concentrated conditioned medium (100 μg) or cell lysate supernatants (50 μg) were mixed with an appropriate volume of 4×SDS sampling buffer and separated by 8% SDS-PAGE gel. The protein bands separated in the SDS-PAGE gel were blotted onto a polyvinylidene fluoride (PVDF) membrane. The blotted PVDF membrane was washed twice and blocked in freshly prepared Tris-buffered saline (TBS) containing 0.1% Tween-20 and 7% skim milk (TBST) for 2 h at room temperature. The PVDF membrane was then incubated with either antibodies against collagen I and III or the housekeeping protein α-tubulin (Santa Cruz Biotechnology, Santa Cruz, Calif.) for 18 h at 4° C. Horseradish peroxidase-conjugated anti-goat antibody was used as secondary antibody. Signals were visualized by an enhanced chemiluminescence kit (Clonetech, Palo Alto, Calif., USA) followed by exposure to X-ray films.
Results shown represent the quantitated data from western blot analysis. […] The collagen I was also over-expressed in the human HaCaT cells treated with 40 μg/mL of astragaloside extract.

[2] = tested on: collagen I; test: Collagen I expression and secretion in human HDF cells (western blot); assay type: cell-based; conditions: relative to 0 = 1.00
Experimental: (§3) Primary human dermal fibroblasts cells (HDF) were purchased from Cascade Biologics (Portland, Oreg., USA) and cultured in medium 106 supplemented with 10% fetal bovine serum (FBS), 100 IU/mL penicillin, 100 μg/mL of streptomycin. The cells from passages 4 to 10 were used for this study. Culture medium was replaced every other day. After confluence, the cells were subcultured following trypsinization. For subcultures cells were harvested after brief treatment with 0.1% trypsin/EDTA solution and seeded at a dilution of 1:10. The cells were seeded at 1×10^5 cells in 6-well culture plate for 24 h before treated with astragalosides or crude extracts, such as butanol fraction and water insoluble fraction of Astragalus membranaceus for the indicated time periods. Control cultures were maintained in medium supplemented with vehicle (dimethyl sulfoxide, DMSO, 0.1%). No growth and differentiation effects of DMSO were observed under these culture conditions.
as §1, §2
The collagen expression in the human HDF cells was also determined. […] And Collage I was over-expressed in the cells treated with various doses (1, 10, 40 μg/mL) of the crude extracts, such as butanol fraction and water insoluble fraction of Astragalus membranaceus.

[3] = tested on: HA synthase 2 (HAS2); test: Quantitative analysis of HA synthase 2 (HAS2) transcripts in HaCaT cells (qRT-PCR); assay type: cell-based, human; conditions: 0.1 μM, qRT-PCR normalized to GAPDH, relative to 0 = 1.00
Experimental: Relative levels of HAS2 expression in HaCaT cells were determined by real-time quantitative reverse transcriptase polymerase chain reaction (qRT-PCR). Total RNAs were isolated from the cultured human cells using TRIzol reagent (Invitrogen, Irvine, Calif., USA). 1 μg of RNA was reverse transcribed, at 37° C. for 60 min in a 20 μl transcription mixture containing dNTP (0.5 mM), oligo-dT (0.1 μg), RNasin (10 units), 1×PCR buffer (20 mM Tris-HCl, pH 8.3; 2.5 mM MgCl2; 50 mM KCl), and 100 units of Moloney murine leukemia virus reverse transcriptase (Invitrogen). The cDNA product was phenol extracted, ethanol precipitated, and resuspended in 20 μl TE (20 mM Tris-Cl, pH 8.0 and 1 mM EDTA). qRT-PCR was performed using the Applied Biosystem 7300 system and pre-developed Taqman Gene Expression Assays (Applied Biosystems, Foster City, Calif., USA). The reaction mixtures (20-μl total volume) contained 2 μl of serially diluted cDNA, 10 μl of Taqman Universal PCR Master Mix (Applied Biosystems), and 1 μl of either human HAS-2 gene (assay ID Hs 00193435_ml, Applied Biosystems), or GAPDH primer mix (assay ID Hs99999905_ml, Applied Biosystems). The reactions were amplified as follows: 50° C. for 2 min and 95° C. for 10 min, followed by 40 cycles of 95° C. for 1 min and 65° C. for 1 min. Two independent triplicate experiments were performed for the selected genes. Relative quantitation was performed using the 7300 software (Applied Biosystems, Foster City, Calif., USA). Expression of HAS-2 was normalized to GAPDH expression in each sample.

[4] = tested on: collagen III; test: Collagen III expression and secretion in human HDF cells (western blot); assay type: cell-based; conditions: relative to 0 = 1.00
Experimental: as §3, §1, §2

Row | Molecule | Collagen I in cell ([1]; 0.01 μM) | Collagen I in cell ([1]; 0.1 μM) | Collagen I in cell ([1]; 1 μM) | Collagen I in cell ([2]; 0.01 μM) | Collagen I in medium ([2]; 0.01 μM) | Collagen I in cell ([2]; 0.1 μM) | Collagen I in medium ([2]; 0.1 μM) | Collagen I in cell ([2]; 1 μM) | Collagen I in medium ([2]; 1 μM) | HAS-2 in cell [3] | Collagen III in cell ([4]; 0.01 μM) | Collagen III in medium ([4]; 0.01 μM) | Collagen III in cell ([4]; 0.1 μM) | Collagen III in medium ([4]; 0.1 μM) | Collagen III in cell ([4]; 1 μM) | Collagen III in medium ([4]; 1 μM)
1 | CC(=O)O[C@H]1[C@H](O[C@H]2CC[C@]34C[C@]35CC[C@]3(C)[C@@H]([C@@]6(C)CC[C@@H](C(C)(C)O)O6)[C@@H](O)C[C@@]3(C)[C@@H]5C[C@H](O[C@@H]3O[C@H](CO)[C@@H](O)[C@H](O)[C@H]3O)[C@H]4C2(C)C)OC[C@@H](OC(C)=O)[C@@H]1O [isoAS1, isoastragaloside I] | 1.13 | 1.06 | 1.19 | 0.71 | 1.20 | 1.11 | 1.08 | 1.27 | 0.96 | 1.12 |  |  |  |  |  | 
2 | astragaloside I [AS1] | 1.13 | 0.72 | 1.22 |  |  |  |  |  |  |  | 1.16 | 1.38 | 1.08 | 1.19 | 1.18 | 1.77
3 | CC(=O)O[C@@H]1[C@@H](O)[C@H](O[C@H]2CC[C@]34C[C@]35CC[C@]3(C)[C@@H]([C@@]6(C)CC[C@@H](C(C)(C)O)O6)[C@@H](O)C[C@@]3(C)[C@@H]5C[C@H](O[C@@H]3O[C@H](CO)[C@@H](O)[C@H](O)[C@H]3O)[C@H]4C2(C)C)OC[C@H]1O [isoAS2, isoastragaloside II] | 1.52 | 0.94 | 1.41 |  |  |  |  |  |  | 1.28 |  | 1.00 |  | 1.07 |  | 1.18
4 | CC(=O)O[C@H]1[C@H](O[C@H]2CC[C@]34C[C@]35CC[C@]3(C)[C@@H]([C@@]6(C)CC[C@@H](C(C)(C)O)O6)[C@@H](O)C[C@@]3(C)[C@@H]5C[C@H](O[C@@H]3O[C@H](CO)[C@@H](O)[C@H](O)[C@H]3O)[C@H]4C2(C)C)OC[C@@H](O)[C@@H]1O [AS2, astragaloside II] | 0.86 | 1.14 | 1.87 | 1.02 | 1.24 | 0.73 | 1.15 | 1.26 | 1.02 | 2.73 |  | 1.26 |  | 1.74 |  | 0.94
5 | CC(C)(O)[C@@H]1CC[C@](C)([C@H]2[C@@H](O)C[C@@]3(C)[C@@H]4C[C@H](O[C@@H]5O[C@H](CO)[C@@H](O)[C@H](O)[C@H]5O)[C@H]5C(C)(C)[C@@H](O[C@@H]6OC[C@@H](O)[C@H](O)[C@H]6O)CC[C@@]56C[C@@]46CC[C@]23C)O1 [AS4, astragaloside IV] |  |  |  | 1.16 | 1.24 | 1.33 | 1.11 | 1.07 | 1.11 | 1.41 |  |  |  |  |  | 
6 | CC(C)(O)[C@@H]1CC[C@](C)([C@H]2[C@@H](O)C[C@@]3(C)[C@@H]4C[C@H](O[C@@H]5O[C@H](CO)[C@@H](O)[C@H](O)[C@H]5O)[C@H]5C(C)(C)[C@@H](O[C@@H]6OC[C@@H](O)[C@H](O)[C@H]6O[C@@H]6O[C@H](CO)[C@@H](O)[C@H](O)[C@H]6O)CC[C@@]56C[C@@]46CC[C@]23C)O1 [AS6, astragaloside VI] |  |  |  | 1.18 | 1.19 | 1.41 | 1.29 | 1.30 | 1.25 |  | 1.65 |  | 1.37 |  | 0.95 | 
7 | CC(C)(O)[C@@H]1CC[C@](C)([C@H]2[C@@H](O)C[C@@]3(C)[C@@H]4C[C@H](O)[C@H]5C(C)(C)[C@@H](O[C@@H]6OC[C@@H](O)[C@H](O)[C@H]6O[C@@H]6O[C@H](CO)[C@@H](O)[C@H](O)[C@H]6O)CC[C@@]56C[C@@]46CC[C@]23C)O1 [AS3, astragaloside III] |  |  |  |  |  |  |  |  |  |  |  | 2.18 |  | 1.79 |  | 1.51
